Structures can show the parent of a compound that is named as a salt.

The nature of series [1]: Approximate solubility in different solvents at RT. It is filed as physicochemical. As to the method:
For each experiment, approximately 2 mg of sample was added into a 3-mL glass vial. Corresponding solvents were then added stepwise (50/50/200/700/1000 μL) into the vials until the solids were dissolved visually or a total volume of 2 mL was reached. Solubility results summarized in Table 64 to Table 66 were used to guide the solvent selection in polymorph screening design.

Series [2] can be described thus: pH solubility in pH 1.0-8.0 buffers at RT. The following applies: thermodynamic from solid; for solubility: pH buffers, 2 and 24 hours. It is filed as physicochemical. As to the method:
The procedures were listed below:
1. […] Add 2 ml, of the corresponding medium.
2. Mixed well and stirred at RT (1000 rpm). Check the pH and adjust it back to the target pH after dosing.
3. Sampled after 2 hours and 24 hours. The supernatant was isolated by centrifugation (12000 rpm, 5 min) and filtration (0.22 μm, PTFE) for pH and HPLC test.

`N#Cc1ccc(COc2cccc(C3CCN(Cc4nc5ccc(C(=O)O)cc5n4Cc4cncs4)CC3)n2)c(F)c1` [Meglumine salt Type A]: the Approximate solubility result in series [1] (2-MeTHF, RT) is reported as “S < 1.0 mg/mL”; in series [1] (ACN, RT), “S < 1.0 mg/mL”; in series [1] (Acetone, RT), “S < 1.1 mg/mL”; in series [1] (Anisole, RT), “S < 1.1 mg/mL”; in series [1] (CHCl3, RT) it was “S < 1.0 mg/mL”; in series [1] (CPME, RT) it was “S < 1.0 mg/mL”. The Approximate solubility entry in series [1] (DCM, RT) is recorded as “S < 1.1 mg/mL”; in series [1] (EtOAc, RT), “S < 1.1 mg/mL”; in series [1] (H2O, RT) it was “S > 44.0 mg/mL”; in series [1] (IPA, RT), “S < 1.1 mg/mL”; in series [1] (IPAc, RT), “S < 1.0 mg/mL”; in series [1] (MIBK, RT), “S < 1.0 mg/mL”. Further, the Approximate solubility entry is reported as “S < 1.0 mg/mL” in series [1] (MTBE, RT); “S < 1.1 mg/mL” in series [1] (THF, RT); “S < 1.2 mg/mL” in series [1] (Toluene, RT); “S < 1.0 mg/mL” in series [1] (n-Heptane, RT). Besides, the solubility at 2 h in series [2] (pH 3.5 buffer, pH 3.5, aqueous buffer, LOQ = 0.0001 mg/mL) is 0.021 mg/mL; in series [2] (pH 4.5 buffer, pH 4.5, aqueous buffer, LOQ = 0.0001 mg/mL), 0.0037 mg/mL; in series [2] (pH 5.5 buffer, pH 5.5, aqueous buffer, LOQ = 0.0001 mg/mL), 0.0028 mg/mL. The molecule also came in with a solubility at 24 h in series [2] (pH 4.5 buffer, pH 4.5, aqueous buffer, 24 Hours, LOQ = 0.0001 mg/mL) of 0.0001 mg/mL. Besides, the solubility in series [2] (pH 1, aqueous buffer, pH 1.0 and 8.0 buffers) is 0.15 to 1.3 mg/mL; in series [2] (pH 2, aqueous buffer, pH 2.0 and 6.8 buffers), 0.016 to 0.2 mg/mL; in series [2] (pH 3.5, aqueous buffer, pH 3.5, 4.5 and 5.5 buffers) it was no more than 0.021 mg/mL.

The solubility is the dissolved amount per volume that the medium holds. A lower solubility goes with little dissolved substance.

For the origin of these results see patent publication US20240360122A1, “POLYMORPHIC FORMS AND SALTS OF A GLP-1R AGONIST” (Terns (Suzhou) Biotechnology Co., Ltd., priority 2023, published 2024).
